Experiments:
[1] = target: T1, TG2-fibronectin (FN42) interaction (Homo sapiens, UniProt P21980); test: TG2 interaction with fibronectin (FN42) ELISA; assay type: binding; details: 5 and 15 μM, with or without 1 mM CaCl2, Fig 2E, 2F
T1 construct: purchased Zedira
T1 sequence (P21980 1-687): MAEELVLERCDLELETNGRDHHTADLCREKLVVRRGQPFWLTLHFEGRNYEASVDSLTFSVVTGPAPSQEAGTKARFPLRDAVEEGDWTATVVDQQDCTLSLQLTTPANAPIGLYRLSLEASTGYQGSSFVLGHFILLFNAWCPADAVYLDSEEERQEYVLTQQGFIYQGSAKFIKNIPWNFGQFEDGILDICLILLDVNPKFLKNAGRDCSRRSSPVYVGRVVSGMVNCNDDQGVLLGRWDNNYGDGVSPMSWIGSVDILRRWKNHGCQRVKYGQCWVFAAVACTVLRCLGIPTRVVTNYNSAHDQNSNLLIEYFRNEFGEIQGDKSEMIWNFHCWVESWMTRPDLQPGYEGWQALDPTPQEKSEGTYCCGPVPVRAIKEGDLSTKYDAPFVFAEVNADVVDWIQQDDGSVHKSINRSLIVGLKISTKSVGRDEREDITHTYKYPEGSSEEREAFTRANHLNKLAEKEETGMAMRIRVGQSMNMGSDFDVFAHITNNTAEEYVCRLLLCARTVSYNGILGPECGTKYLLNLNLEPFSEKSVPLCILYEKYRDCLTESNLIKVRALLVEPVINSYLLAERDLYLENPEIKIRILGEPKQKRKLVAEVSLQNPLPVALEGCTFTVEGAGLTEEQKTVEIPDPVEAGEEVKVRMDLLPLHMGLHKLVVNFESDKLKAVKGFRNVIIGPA
Experimental: To determine the potential effect of BJJF078 and ERW1041E on the interaction of TG2 with fibronectin, ELISA experiments were performed as described previously. Briefly, 96 well ELISA plates (Nunc, Maxisorp) were coated with 100 μg/ml mouse anti his-tag monoclonal antibody (Roche) in PBS at 4°C overnight. This was followed by simultaneous washing and blocking with 0.5% BSA in PBS (3x 10 min). Per well 50 μl of a 10 nM human recombinant TG2 (his-tagged, Zedira) solution in PBS was added. Into each well (triplicates) either DMSO (control, 1% final concentration) or TG2 inhibitors (BJJF078, ERW1041E, final concentration 5 and 15 μM in 1% DMSO) were added. As a positive control similar concentrations of TG53, a small molecule that inhibits the interaction between TG2 and fibronectin was added (kindly provided by Prof D. Matei, Northwestern University, Chicago, USA). […] After 1 h incubation at RT, 50 μl of 10 nM FN42-biotin solution (kindly provided by Prof D. Matei) was added to the wells. After an additional 1 h incubation at RT and washing steps (3x 10 min) with 0.5% BSA in PBS, 100 μl streptavidin-HRPO conjugate (from kit opr001, Covalab) was added and incubated for 1 h at RT. This was followed by another series of washes and the colour reaction started with 100 μl of 3,3′,5,5′ tetramethylbenzidine substrate (TMB, from kit opr001, Covalab). After sufficient colour development (15 min), the reaction was stopped with 1M HCl and absorbance was measured at 450 nm.

[2] = test system: inflammatory cells in spinal cord of EAE mice; test: Immunohistochemistry of cell infiltrates (CD45, CD68, CD3) in spinal cord of EAE mice; assay type: in vivo, mouse; set-up: key to CD45 (average) / CD68 (average): -: no positive cells; +: few positive cells; ++: intermediate amounts of positive cells; +++: high amounts of cells/ cellular clusters; details: for CD3 range / CD45 (average) / CD45 range / CD68 (average) / CD68 range: spinal cord of EAE mice, semi-quantitative, 3 sections per animal; for relative amount of inflammatory cells (CD45, CD68, CD3) in spinal cord: visual inspection or semi-quantification, versus vehicle
Experimental: Immunohistochemical staining was performed on cervical, thoracic and lumbar spinal cord sections from EAE mice treated with vehicle, BJJF078 or ERW1041E. The sections were brought back to room temperature and fixed with acetone for 10 min.
For single immunohistochemical stainings (CD3, CD45, CD68), endogenous peroxidase activity was blocked for 15 min with 0.3% hydrogen peroxide and 0.1% sodium azide in TBS. […] The sections were incubated with primary antibodies (Table 1) at 4°C overnight. After subsequent 2 h incubation with appropriate biotinylated IgGs (1/400, Jackson), the procedure was continued with a 1 h incubation with HRP-labelled avidin-biotin complex (ABC complex 1:400, Vector ABC elite kit, Vector laboratories) and the protocol was followed as described for the in situ TG activity staining above. Semi-quantitative analysis of cellular infiltrates per cell type was performed by unbiased manual evaluation of stained lesion areas per spinal cord section.

effect on binding of TG2 to fibronectin (FN42) [1] | Structure (SMILES) | CD3 range [2] | CD45 (average) [2] | CD45 range [2] | CD68 (average) [2] | CD68 range [2] | relative amount of inflammatory cells (CD45, CD68, CD3) in spinal cord [2]
did not interfere | C=CC(=O)NC1CCN(S(=O)(=O)c2cccc3c(NC(=O)c4ccc(OC)c(OC)c4)cccc23)CC1 [BJJF078, 3,4-Dimethoxy-N-(5-[4-(acryloylamino)piperidine-1-sulfonyl]-naphthalen-1-yl)-benzamide] | - to + | ++ | + to +++ | ++ | - to +++ | not affected
did not interfere | O=C(NCC1CC(Br)=NO1)C1CCCN1C(=O)OCc1cnc2ccccc2c1 (centres unmarked) [ERW1041E, 2-[(3-Bromo-4,5-dihydro-isoxazol-5-ylmethyl)-carbamoyl]-pyrrolidine-1—carboxylic acid quinolin-3-ylmethyl ester] | - to + | ++ | + to +++ | ++ | - to +++ | not affected
